PubChem BioAssay (NCI)
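At the GI50, growth is halved. TGI: concentration producing complete growth inhibition.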

Legend:
Assay in all cases: NCI anticancer screen, dose series, 384-well format
786-0 renal = tested on: 786-0 renal
A498 renal = tested on: A498 renal
A549 NSCLC = tested on: A549 NSCLC
ACHN renal = tested on: ACHN renal
BT-549 breast = tested on: BT-549 breast
CAKI-1 renal = tested on: CAKI-1 renal
CCRF-CEM leukemia = tested on: CCRF-CEM leukemia
COLO 205 colon = tested on: COLO 205 colon
DU-145 prostate = tested on: DU-145 prostate
EKVX NSCLC = tested on: EKVX NSCLC
HCC-2998 colon = tested on: HCC-2998 colon
HCT-15 colon = tested on: HCT-15 colon
HL-60(TB) leukemia = tested on: HL-60(TB) leukemia
HOP-62 NSCLC = tested on: HOP-62 NSCLC
HOP-92 NSCLC = tested on: HOP-92 NSCLC
HS 578T breast = tested on: HS 578T breast
HT29 colon = tested on: HT29 colon
IGROV1 ovarian = tested on: IGROV1 ovarian
K-562 leukemia = tested on: K-562 leukemia
KM12 colon = tested on: KM12 colon
LOX IMVI melanoma = tested on: LOX IMVI melanoma
M14 melanoma = tested on: M14 melanoma
MALME-3M melanoma = tested on: MALME-3M melanoma
MCF7 breast = tested on: MCF7 breast
MDA-MB-231 breast = tested on: MDA-MB-231 breast
MDA-MB-435 melanoma = tested on: MDA-MB-435 melanoma
MDA-MB-468 breast = tested on: MDA-MB-468 breast
MOLT-4 leukemia = tested on: MOLT-4 leukemia
NCI-H226 lung = tested on: NCI-H226 lung
NCI-H23 lung = tested on: NCI-H23 lung
NCI-H322M lung = tested on: NCI-H322M lung
NCI-H460 NSCLC = tested on: NCI-H460 NSCLC
NCI-H522 lung = tested on: NCI-H522 lung
NCI/ADR-RES ovarian = tested on: NCI/ADR-RES ovarian
OVCAR-3 ovarian = tested on: OVCAR-3 ovarian
OVCAR-4 ovarian = tested on: OVCAR-4 ovarian
OVCAR-5 ovarian = tested on: OVCAR-5 ovarian
OVCAR-8 ovarian = tested on: OVCAR-8 ovarian
PC-3 prostate = tested on: PC-3 prostate
RPMI-8226 leukemia = tested on: RPMI-8226 leukemia
RXF 393 renal = tested on: RXF 393 renal
SF-268 CNS = tested on: SF-268 CNS
SF-295 CNS = tested on: SF-295 CNS
SF-539 CNS = tested on: SF-539 CNS
SK-MEL-28 melanoma = tested on: SK-MEL-28 melanoma
SK-MEL-5 melanoma = tested on: SK-MEL-5 melanoma
SK-OV-3 ovarian = tested on: SK-OV-3 ovarian
SN12C renal = tested on: SN12C renal
SNB-19 CNS = tested on: SNB-19 CNS
SNB-75 CNS = tested on: SNB-75 CNS
SR leukemia = tested on: SR leukemia
SW-620 colon = tested on: SW-620 colon
T-47D breast = tested on: T-47D breast
TK-10 renal = tested on: TK-10 renal
UACC-257 melanoma = tested on: UACC-257 melanoma
UACC-62 melanoma = tested on: UACC-62 melanoma
UO-31 renal = tested on: UO-31 renal

With Cn1ncc(-c2ccc3c(=O)[nH]nc(CN)c3c2)c1-c1c(F)cc2ccccc2c1C#N the GI50 ([…]-0 renal) was 2.13 µM, the TGI (786-0 renal) was 12.6 µM and the GI50 (A498 renal) was 2.22 µM. It also gave a TGI (A498 renal) of 11 µM, a GI50 (A549 NSCLC) of 2.8 µM and a TGI (A549 NSCLC) of 14 µM. The GI50 (ACHN renal) was 2.3 µM, the TGI (ACHN renal) was 11.2 µM and the GI50 (BT-549 breast) was 2.9 µM. For the same compound, the TGI (BT-549 breast) was 11 µM, the GI50 (CAKI-1 renal) was 3.23 µM and the TGI (CAKI-1 renal) was 13.9 µM. The GI50 (CCRF-CEM leukemia) was 1.15 µM, the TGI (CCRF-CEM leukemia) was 3.04 µM and the GI50 (COLO 205 colon) was 2.9 µM. The TGI (COLO 205 colon) was 15.3 µM, the GI50 (DU-145 prostate) was 3.87 µM and the TGI (DU-145 prostate) was 14.9 µM. The GI50 (EKVX NSCLC) was 5.14 µM, the TGI (EKVX NSCLC) was 18.7 µM and the GI50 (HCC-2998 colon) was 3.08 µM. It also gave a TGI (HCC-2998 colon) of 14 µM, a GI50 (HCT-15 colon) of 2.28 µM and a TGI (HCT-15 colon) of 10.8 µM. The GI50 (HL-60(TB) leukemia) was 1.72 µM, the TGI (HL-60(TB) leukemia) was 3.29 µM and the GI50 (HOP-62 NSCLC) was 2.41 µM. It also gave a TGI (HOP-62 NSCLC) of 13 µM, a GI50 (HOP-92 NSCLC) of 1.18 µM and a TGI (HOP-92 NSCLC) of 6.91 µM. The GI50 (HS 578T breast) was 1.76 µM, the TGI (HS 578T breast) was 4.22 µM and the GI50 (HT29 colon) was 2.64 µM. It also gave a TGI (HT29 colon) of 11.8 µM, a GI50 (IGROV1 ovarian) of 3.42 µM and a TGI (IGROV1 ovarian) of 14 µM. For the same compound, the GI50 (K-562 leukemia) was 2.11 µM, the TGI (K-562 leukemia) was 8.63 µM and the GI50 (KM12 colon) was 2.63 µM. For the same compound, the TGI (KM12 colon) was 11.3 µM, the GI50 (LOX IMVI melanoma) was 2.73 µM and the TGI (LOX IMVI melanoma) was 11.1 µM. It also gave a GI50 (M14 melanoma) of 2.83 µM, a TGI (M14 melanoma) of 8.76 µM and a GI50 (MALME-3M melanoma) of 1.59 µM. For the same compound, the TGI (MALME-3M melanoma) was 5.5 µM, the GI50 (MCF7 breast) was 1.11 µM and the TGI (MCF7 breast) was 9.34 µM. For the same compound, the GI50 (MDA-MB-231 breast) was 2.1 µM, the TGI (MDA-MB-231 breast) was 14.4 µM and the GI50 (MDA-MB-435 melanoma) was 2.08 µM. The TGI (MDA-MB-435 melanoma) was 4.61 µM, the GI50 (MDA-MB-468 breast) was 1.31 µM and the TGI (MDA-MB-468 breast) was 3.44 µM. For the same compound, the GI50 (MOLT-4 leukemia) was 0.0298 µM, the TGI (MOLT-4 leukemia) was 0.101 µM and the GI50 (NCI-H226 lung) was 3.4 µM. For the same compound, the TGI (NCI-H226 lung) was 15.1 µM, the GI50 (NCI-H23 lung) was 2.19 µM and the TGI (NCI-H23 lung) was 7.34 µM. The GI50 (NCI-H322M lung) was 4.74 µM, the TGI (NCI-H322M lung) was 18.3 µM and the GI50 (NCI-H460 NSCLC) was 1.27 µM. For the same compound, the TGI (NCI-H460 NSCLC) was 11.5 µM, the GI50 (NCI-H522 lung) was 2.37 µM and the TGI (NCI-H522 lung) was 6.27 µM. For the same compound, the GI50 (NCI/ADR-RES ovarian) was 5.21 µM, the TGI (NCI/ADR-RES ovarian) was 25.1 µM and the GI50 (OVCAR-3 ovarian) was 1.77 µM. It also gave a TGI (OVCAR-3 ovarian) of 5.25 µM, a GI50 (OVCAR-4 ovarian) of 1.3 µM and a TGI (OVCAR-4 ovarian) of 7.5 µM. For the same compound, the GI50 (OVCAR-5 ovarian) was 4.58 µM, the TGI (OVCAR-5 ovarian) was 17.1 µM and the GI50 (OVCAR-8 ovarian) was 2.59 µM. It also gave a TGI (OVCAR-8 ovarian) of 15.2 µM, a GI50 (PC-3 prostate) of 3.96 µM and a TGI (PC-3 prostate) of 14.7 µM. The GI50 (RPMI-8226 leukemia) was 1.45 µM, the TGI (RPMI-8226 leukemia) was 3.02 µM and the GI50 (RXF 393 renal) was 1.69 µM. The TGI (RXF 393 renal) was 8.25 µM, the GI50 (SF-268 CNS) was 2.4 µM and the TGI (SF-268 CNS) was 12 µM. For the same compound, the GI50 (SF-295 CNS) was 4.96 µM, the TGI (SF-295 CNS) was 17.2 µM and the GI50 (SF-539 CNS) was 1.84 µM. The TGI (SF-539 CNS) was 5.38 µM, the GI50 (SK-MEL-28 melanoma) was 3.09 µM and the TGI (SK-MEL-28 melanoma) was 12.6 µM. For the same compound, the GI50 (SK-MEL-5 melanoma) was 1.18 µM, the TGI (SK-MEL-5 melanoma) was 3.27 µM and the GI50 (SK-OV-3 ovarian) was 4.57 µM. The TGI (SK-OV-3 ovarian) was 16.6 µM, the GI50 (SN12C renal) was 2.17 µM and the TGI (SN12C renal) was 9.35 µM. The GI50 (SNB-19 CNS) was 4.87 µM, the TGI (SNB-19 CNS) was 18.8 µM and the GI50 (SNB-75 CNS) was 2.55 µM. It also gave a TGI (SNB-75 CNS) of 10.3 µM, a GI50 (SR leukemia) of 0.0374 µM and a TGI (SR leukemia) of 0.313 µM. The GI50 (SW-620 colon) was 2.54 µM, the TGI (SW-620 colon) was 11.5 µM and the GI50 (T-47D breast) was 1.08 µM. The TGI (T-47D breast) was 6.19 µM, the GI50 (TK-10 renal) was 8.98 µM and the TGI (TK-10 renal) was 21.2 µM. The GI50 (UACC-257 melanoma) was 2.64 µM, the TGI (UACC-257 melanoma) was 8.43 µM and the GI50 (UACC-62 melanoma) was 2.97 µM. It also gave a TGI (UACC-62 melanoma) of 14.2 µM, a GI50 (UO-31 renal) of 6.43 µM and a TGI (UO-31 renal) of 19.6 µM.
